Consider one molecule from article PMC3790966, “Honokiol: A non-adipogenic PPARγ agonist from nature^” (Biochimica et Biophysica Acta, 2013).

In one assay the target is T1, PPARα (Homo sapiens, UniProt Q07869).
T1 construct: gene PPARA; LBD
T1 sequence (Q07869 196-468 limits assumed): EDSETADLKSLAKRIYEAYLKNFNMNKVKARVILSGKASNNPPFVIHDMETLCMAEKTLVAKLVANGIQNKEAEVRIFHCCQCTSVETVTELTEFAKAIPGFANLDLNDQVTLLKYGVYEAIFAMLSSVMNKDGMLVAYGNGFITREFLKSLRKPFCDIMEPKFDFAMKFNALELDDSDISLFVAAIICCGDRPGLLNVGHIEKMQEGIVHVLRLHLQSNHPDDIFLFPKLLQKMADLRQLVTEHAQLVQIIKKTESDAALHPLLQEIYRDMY
Description: LBD binding (data not shown), three to four-fold higher concentrations than for PPARγ.

For a further assay, the target named is T2, PPARβ/δ (Homo sapiens, UniProt Q03181).
T2 construct: gene PPARD; LBD
T2 sequence (Q03181 171-441 limits assumed): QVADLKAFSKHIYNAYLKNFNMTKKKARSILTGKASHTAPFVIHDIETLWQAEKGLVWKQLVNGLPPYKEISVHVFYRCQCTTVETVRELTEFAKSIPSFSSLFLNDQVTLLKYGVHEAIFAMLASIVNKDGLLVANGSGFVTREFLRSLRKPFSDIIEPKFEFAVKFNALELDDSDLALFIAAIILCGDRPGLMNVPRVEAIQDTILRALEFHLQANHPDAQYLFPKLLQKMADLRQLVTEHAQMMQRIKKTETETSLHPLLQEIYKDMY
Described as above.

Another assay addresses T3, PPARγ (Homo sapiens, UniProt P37231).
T3 construct: gene PPARG
T3 sequence (P37231 231-505 limits assumed): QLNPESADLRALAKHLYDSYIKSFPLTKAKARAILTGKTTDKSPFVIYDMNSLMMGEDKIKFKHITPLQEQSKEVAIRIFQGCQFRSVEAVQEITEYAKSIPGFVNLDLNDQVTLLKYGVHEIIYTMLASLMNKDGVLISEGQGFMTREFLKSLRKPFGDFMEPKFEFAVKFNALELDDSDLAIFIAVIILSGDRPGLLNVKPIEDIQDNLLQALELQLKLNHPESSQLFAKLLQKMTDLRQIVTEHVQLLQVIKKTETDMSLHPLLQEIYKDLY
Description: LanthaScreen TR-FRET competitive binding assay with purified LBD; supported by luciferase transactivation (partial agonist, EC50 […]).

Take `C=CCc1ccc(O)c(-c2ccc(O)c(CC=C)c2)c1` [honokiol]: the “LBD binding (data not shown), three to four-fold higher concentrations than for” value at PPARα was “Honokiol also bound to the LBDs of PPARα and PPARβ/δ but only at considerably (three to four-fold) higher concentrations”; on PPARβ/δ, “Honokiol also bound to the LBDs of PPARα and PPARβ/δ but only at considerably (three to four-fold) higher concentrations”. At PPARγ, this molecule registered a Ki of 22.9 µM.

A word on the Ki: it is a measure of affinity in units of concentration, obtained from inhibition or displacement.
